According to patent US20240082212A1, “USE OF MDMA FOR TREATMENT OF STRESS-RELATED DISORDERS” (priority 2022, published 2024):
Entries after “also recorded” stand apart in the source; their conditions may differ.

Legend:
cortical neurons = assay: Neurite outgrowth in embryonic rat cortical neuron cultures; assay type: cell-based; settings: any tested concentration (0.001 to 10000 nM), 3 days, vs vehicle
Text: Female Wistar rats of 17 days gestation were killed by cervical dislocation and the fetuses (typically 6 to 8 in number) were removed from the uteri. Fetal brains were placed in ice-cold medium of Leibovitz (L15, Gibco, France). Cortex was dissected and meninges were carefully removed. The cortical neurons were dissociated by trypsinization (trypsin-EDTA, Gibco) in the presence of DNAse I (Roche, France). The reaction was stopped by addition of Dulbecco's Modified Eagle Medium (DMEM; Gibco) with 10% of fetal bovine serum (FBS; Gibco). The suspension was triturated with a 10-ml pipette and a 21-gauge needle syringe and centrifuged. The pellet of dissociated cells was resuspended in a medium consisting of Neurobasal (Gibco) supplemented with 2% B27 supplement (Gibco), 0.5 mM L-Glutamine (Gibco), and an antibiotic-antimycotic mixture. Viable cells were counted in a Neubauer cytometer and cells were seeded in 96-well plates (Costar) precoated with poly-L-lysine at 10,000 cells/well. […] Stock solutions were prepared in sterile water at 10 mM and stored at −20° C. until used. Further dilutions were prepared in culture in the medium on the day of the treatment. 0.1% Sterile water was present in all tested conditions.
The experimental protocol was performed in two independent cultures (i.e., from two different pregnant rats). For each culture, each condition was tested in sextuplet (6 wells per condition per culture for a total of 12 wells per condition). […] After three days of plating and compound treatment (Day 3), cultures were fixed with paraformaldehyde in phosphate buffered saline at 4° C. (PBS, 4%, Sigma). All subsequent steps were performed at room temperature. Cells were successively permeabilized for 30 minutes using 0.1% triton, saturated with PBS containing 3% bovine serum albumin (BSA) and incubated for 1 hour with anti-beta III tubulin antibody (T5168, Sigma). […] Finally, nuclei were stained with 4′-6-diamidino-2-phenylindole (DAPI). After rinsing the cells with PBS, the plate was imaged and neurite networks were examined and analyzed using a High-Content Screening platform (CellInsight CXS, Thermo Scientific) with integrated Photometrics high-resolution fluorescent camera, Olympus objective (10×) and HCS Studio Cell Analysis Software. Approximately 2,000 neurons per well were analyzed using a validated cortex neuron outgrowth algorithm that utilizes parameters optimized for analysis of embryonic rat cortical neuron cultures. The HCS Studio Cell Analysis Software output included values for neurite total count (#), neurite total length (μm) and total number of branch points (#) for each of the 6 wells per culture. The evaluation of neurite outgrowth was performed using the average number of neurites per neuron (#), the average of total neurite length per neuron (μm) and the average number of branch points per neuron (#) across 12 wells. Data also was transformed to percent (%) of the average vehicle control value. Results were expressed as mean (±s.e.m.) of the transformed (% of vehicle control) data. Statistical analyses were performed on transformed percent of the average vehicle control data for each measure for each test article using one-way analysis of variance (Anova, StatView). Where applicable, Dunnett's test was used for multiple pairwise comparisons to the negative control (vehicle) condition. […] The level of significance was set at p value less than or equal to 0.05 (*p<0.05).

CD (Sprague Dawley) rats = assay: Rat telemetry: heart rate, blood pressure, body temperature, activity after cumulative SC dosing; assay type: in vivo
Text: Methods. A total of 42 adult male CD® (Sprague Dawley) rats (Charles River Laboratories) were surgically implanted with DSI radiotelemetry devices by personnel at Charles River Laboratories Raleigh, NC, per their test site SOPs. Telemetry devices supported continuous recording of temperature, activity, blood pressure and heart rate. Telemeterized rats were shipped to the Charles River Laboratories testing facility (Mattawan, MI) and acclimated to the environment for at least 1 week prior to experimentation. Animals were pair-housed in solid bottom cages with nonaromatic bedding. On the dosing day, animals were singly housed and then returned to the paired cohort following the dosing/telemetry recording phase. Diet (Lab Diet® Certified Rodent Diet #5CR4) and tap water via an automatic water system were available ad libitum, except during designated procedures. Temperature and humidity were maintained according to the Testing Facility SOP. Animals were randomized into treatment groups using a standard, by weight, measured value randomization procedure. Body weight was determined for each rat prior to dosing.
As illustrated in the Table, a total of 36 rats were included in the study. The vehicle and 2 test article doses were administered in a volume of 1 mL/kg to each of 3 groups of n=12 telemeterized rats via subcutaneous injection four times on a given day, followed by neurobehavioral evaluations. This series was repeated 3 times on study. Each group received all 3 dose levels of the applicable test or control article in ascending order with a 1-week washout between dose levels.
Mortality/cage side clinical observations were conducted for all study animals at least twice daily beginning upon receipt through termination, except on days of receipt and termination where frequency was at least once daily. Detailed clinical observations were conducted for all study animals prior to each of the four cumulative doses in a series. Individual body weights were conducted for all study animals at transfer, prior to randomization, on the day of dosing on each of the 3 cycles of dosing. The body weights recorded at transfer and prior to randomization are not reported but are maintained in the study file. Veterinary care was available throughout the course of the study, and animals were examined by the veterinary staff as needed based on clinical signs or other changes. All animals were provided with HydroGel the night prior to their respective dosing days to potentially mitigate any animal welfare issues related to fluid loss/dehydration.
Telemetry monitoring was conducted for all animals 2 hours prior to dosing and through to 7.5 hours following the last (4th) cumulative dose of each series, which included continuous data collection of body temperature, activity, heart rate, and blood pressure (systolic, diastolic, and mean arterial) using telemetry.
The total period of time over which the statistical analyses were conducted encompassed the entire dosing period for all animals (i.e., Dose 1 through 7.5 hour post-4th dose) in an effort to draw conclusions regarding the effects of the dosing procedure and cumulative changes by allowing comparisons between the cumulative dosing periods. The following statistical analyses were performed for each analysis segment.
All time-series data comparisons conducted via statistical analysis are relative to the control treatment and are based on the LSMean values. Additionally, the change values used for the statistical analysis were calculated using a baseline of the 2 hours of pre-dose data, prior to the first compound injection of the series. The raw change values were analyzed.

[1] = Rat brain monoamine and metabolite concentrations 1 week after cumulative SC dosing; settings: cumulative SC, 5 mg/kg/injection; 1 week after dosing; 5 mg/kg
[2] = racemic MDMA 20 mg/kg/day, S-MDMA 10 mg/kg/day, approximate
[3] = telemetry, cumulative SC dosing, dose groups stated in the value

Structure (SMILES) | neurite number (#) (cortical neurons) | neurite total length (μm) (cortical neurons) | total number of branch points (#) (cortical neurons) | hemodynamic parameters (systolic/diastolic/mean arterial blood pressures and heart rate) (CD (Sprague Dawley) rats; 4 hourly SC injections, cumulative doses 5, 10, or 20 mg/kg/day) | period of significantly decreased body temperature compared to R-MDMA (10 mg/kg/day) (CD (Sprague Dawley) rats; S-MDMA 10 mg/kg/day, approximate) | body temperature response (CD (Sprague Dawley) rats; S-MDMA 5, 10 mg/kg/day, racemic-MDMA 10, 20 mg/kg/day, 4 hourly SC injections) | activity (implanted telemetry devices) (CD (Sprague Dawley) rats; all cumulative doses (5, 10, or 20 mg/kg/day)) | blood pressure increase [mean arterial pressure] (CD (Sprague Dawley) rats; maximum change, R-MDMA and racemic MDMA 10, 20 mg/kg/day, S-MDMA 5, 10 mg/kg/day, 4 hourly SC injections) | peak body temperatures (CD (Sprague Dawley) rats; overall mean magnitude of change, 4 hourly SC injections) [°C] | period of significantly increased body temperature compared to R-MDMA (10 mg/kg/day) (CD (Sprague Dawley) rats; [2]) | period of significantly increased heart rate compared to R-MDMA (10 mg/kg/day) (CD (Sprague Dawley) rats; [2]) | period of significantly increased mean arterial blood pressure compared to R-MDMA (10 mg/kg/day) (CD (Sprague Dawley) rats; [2]) | period of significantly increased systolic blood pressure compared to R-MDMA (10 mg/kg/day) (CD (Sprague Dawley) rats; [2]) | Rank Order Blood Pressures (Systolic, Diastolic, and Mean Arterial) Effects (CD (Sprague Dawley) rats; [3]) | Rank Order Body Temperature Effects (CD (Sprague Dawley) rats; [3]) | Rank Order General Activity Effects (CD (Sprague Dawley) rats; [3]) | Rank Order Heart Rate Measurement Effects (CD (Sprague Dawley) rats; [3]) | frontal cortex 5-HT (serotonin) compared to vehicle [1]
CNC(C)Cc1ccc2c(c1)OCO2 (single isomer, unassigned) [S-MDMA, S(+)-MDMA] | did not significantly alter | did not significantly alter | did not significantly alter | dose-dependent blood pressure-increasing effects | 0.5-1 hours post initiation of dosing | hyperthermic response | Activity-increasing effects | up to +36% | 39.5 | 3.5-4 hours post initiation of dosing | 5-10 hours post initiation of dosing | 1.5-3 hours post initiation of dosing | 1.5-3 hours post initiation of dosing | R-MDMA (10 mg/kg/day) < S-MDMA (5 mg/kg/day) < Rac.-MDMA (10 mg/kg/day); also recorded: R-MDMA (20 mg/kg/day) < S-MDMA (10 mg/kg/day) < Rac-MDMA (20 mg/kg/day); also recorded: S-MDMA (0 mg/kg/day) < S-MDMA (5 mg/kg/day) < S-MDMA (10 mg/kg/day); also recorded: R-MDMA (10 mg/kg/day) < S-MDMA (10 mg/kg/day) < Rac-MDMA (20 mg/kg/day) | R-MDMA (10 mg/kg/day) < S-MDMA (5 mg/kg/day) < Rac.-MDMA (10 mg/kg/day); also recorded: R-MDMA (20 mg/kg/day) < S-MDMA (10 mg/kg/day) < Rac-MDMA (20 mg/kg/day); also recorded: S-MDMA (0 mg/kg/day) < S-MDMA (5 mg/kg/day) < S-MDMA (10 mg/kg/day); also recorded: R-MDMA (10 mg/kg/day) < S-MDMA (10 mg/kg/day) < Rac-MDMA (20 mg/kg/day) | R-MDMA (10 mg/kg/day) < S-MDMA (5 mg/kg/day) < Rac.-MDMA (10 mg/kg/day); also recorded: R-MDMA (20 mg/kg/day) < S-MDMA (10 mg/kg/day) < Rac-MDMA (20 mg/kg/day); also recorded: S-MDMA (0 mg/kg/day) < S-MDMA (5 mg/kg/day) < S-MDMA (10 mg/kg/day); also recorded: R-MDMA (10 mg/kg/day) < S-MDMA (10 mg/kg/day) < Rac-MDMA (20 mg/kg/day) | R-MDMA (10 mg/kg/day) < S-MDMA (5 mg/kg/day) < Rac.-MDMA (10 mg/kg/day); also recorded: R-MDMA (20 mg/kg/day) < S-MDMA (10 mg/kg/day) < Rac-MDMA (20 mg/kg/day); also recorded: S-MDMA (0 mg/kg/day) < S-MDMA (5 mg/kg/day) < S-MDMA (10 mg/kg/day); also recorded: R-MDMA (10 mg/kg/day) < S-MDMA (10 mg/kg/day) < Rac-MDMA (20 mg/kg/day) | significantly decreased frontal cortex 5-HT concentrations
C[C@H](N)Cc1ccc2c(c1)OCO2 [S-MDA, S(+)-MDA] | did not significantly alter | did not significantly alter | did not significantly alter |  |  |  |  |  |  |  |  |  |  |  |  |  |  | 
